Assay results: US20120220577A1, “GLYCINE B ANTAGONISTS” (Merz Pharma GmbH & Co KgaA, priority 2009, published 2012)

Molecular target: NMDA receptor glycine B site (Rattus norvegicus, UniProt P35439)
Test: Whole cell patch-clamp recordings, rat hippocampal neurons (NMDA/D-Serine currents)
Type: cell-based
Details: NMDA 200 μM + D-Serine 1 μM, -70 mV, read-out: NMDA-PC-r-HIC-NAM - IC50
Description: Antagonistic potencies of the test compounds are functionally evaluated using electrophysiological whole cell patch-clamp recordings and/or fluorometric intracellular Ca^2+-imaging (FLIPR) screens.
Cell preparation is performed as described by Parsons, et al. (Neuropharmacology, 1998, 37(6), 719-727). The female Sprague-Dawley rat is anaesthetised by placing in a saturated CO2-euthanasia chamber under further quiet CO2-influx. Under these conditions the rat loses consciousness after a few seconds and is then sacrificed by cervical dislocation. After opening the abdominal cavity, embryos (E20) are removed and stored in ice cold Ca^2+- and Mg^2+-free Hank's Buffered Salt Solution (pH 7.3), containing 4 g/l glucose (HBSS-CMF). Hippocampi are then isolated from the brains of at least 8 embryos after decapitation, transferred into ice cold HBSS-CMF and washed 3 to 4 times.
Hippocampi are pre-incubated for 8 min with a 0.66% trypsin (Sigma-Aldrich) and 0.1% (20 U/ml) DNAase solution (Sigma-Aldrich) in Ca^2+-free Phosphate Buffered Saline (PBS-CF) and washed 3 times with HBSS-CMF. Cells are then mechanically dissociated by trituration in a PBS-CF solution containing 0.05% (10 U/ml) DNAase and 0.3% of the trypsin inhibitor ovomucoid (all from Sigma-Aldrich). The cells are then centrifuged at 180×g for 10 minutes, and the cell pellet re-suspended in basal Minimum essential medium (MEM, Invitrogen, Karlsruhe, Germany), again carefully triturated to ensure maximal dissociation and finally plated in the flexiPERM inserts (Thermo Fisher Scientific, Langenselbold, Germany) at a density of 15×10^3 cells/cm^2 (0.5 ml/insert) onto poly-DL-ornithine (Sigma) and mouse laminin (Invitrogen) pre-coated plastic petri dishes. After 1 hour the cells become attached to the bottom of the dish and the inserts may be removed. The cells are then nourished with 2 ml MEM supplemented with 5% foetal calf serum (FCS) and 5% horse serum and incubated at 37° C. with 95% air and 5% CO2 at 95% humidity. After 4 days in vitro (DIV) further glial mitosis is inhibited by adding 10 μl of AraC (5 μM endconcentration). The medium is completely exchanged after an additional 2 DIV and again, but only partly (50%), after 8 DIV. The cells are used for electrophysiological recordings after 11-15 DIV.
Cells are visualised using an inverted microscope and selected for patching based upon their position and morphology. Voltage clamp recordings are made in the whole cell configuration of the patch clamp technique at a holding potential of −70 mV with the aid of an EPC-10 amplifier in combination with pipette manipulator. Patch clamp pipettes are pulled from borosilicate glass using a horizontal puller (P-97 Puller, Sutter Instruments, USA) and, when filled with intracellular solution, have resistances of 1-4 MΩ.
Solutions are delivered via a home-made gravity driven very fast perfusion system (<10 ms) including valves to switch flow on and off in combination with a stepper motor-driven double-barrelled theta glass application pipette in order to expose cells to either agonist-free or agonist-containing solutions in presence or absence of antagonist.
The intracellular solution used consists of: 120 mM CsCl, 10 mM EGTA, 1 mM MgCl2, 200 μM CaCl2, 10 mM glucose and 22 mM tetraethyl ammonium chloride (TEA-CL). The corresponding extracellular bath solution contains: 140 mM NaCl, 3 mM KCl, 10 mM glucose, 10 mM HEPES, 1.5 mM CaCl2 and 4.5 mM sucrose (all from Sigma-Aldrich) pH 7.3, and is supplemented with 0.3 μM tetrodotoxin (TTX, Tocris, Bristol, U.K.) to block voltage-activated sodium channels and 0.25 μM bicuculline (Sigma-Aldrich) to block GABAA receptors. […]

| IC50 | Structure (SMILES) |
| --- | --- |
| 850 nM | O=C(O)COc1cc(C(=O)O)cc2cc(Cl)cc(Cl)c12 [Example 1, 4-Carboxymethoxy-5,7-dichloronaphthalene-2-carboxylic acid] |
| 493 nM | O=C(COc1cc(C(=O)O)cc2cc(Cl)cc(Cl)c12)Nc1ccccc1C(=O)O [Example 3, 4-[(2-Carboxy-phenylcarbamoyl)-methoxy]-5,7-dichloro-naphthalene-2-carboxylic acid] |
| 258 nM | O=C(COc1cc(C(=O)O)cc2cc(Cl)cc(Cl)c12)Nc1ccccc1CO [Example 5, 5,7-Dichloro-4-[(2-hydroxymethylphenylcarbamoyl)-methoxy]-naphthalene-2-carboxylic acid] |
| 510 nM | O=C(O)Cc1ccc(NC(=O)COc2cc(C(=O)O)cc3cc(Cl)cc(Cl)c23)cc1 [Example 7, 4-[(4-Carboxymethylphenylcarbamoyl)-methoxy]-5,7-dichloronaphthalene-2-carboxylic acid] |
| 178 nM | O=C(O)Cc1cccc(NC(=O)COc2cc(C(=O)O)cc3cc(Cl)cc(Cl)c23)c1 [Example 13, 4-[(3-Carboxymethylphenylcarbamoyl)-methoxy]-5,7-dichloronaphthalene-2-carboxylic acid] |
| 727 nM | CN(C(=O)COc1cc(C(=O)O)cc2cc(Cl)cc(Cl)c12)c1ccc(C(=O)O)cc1 [Example 14, 4-{[(4-Carboxy-phenyl)-methylcarbamoyl]-methoxy}-5,7-dichloronaphthalene-2-carboxylic acid] |
| 356 nM | O=C(O)Cc1ccccc1NC(=O)COc1cc(C(=O)O)cc2cc(Cl)cc(Cl)c12 [Example 15, 4-[(2-Carboxymethylphenylcarbamoyl)-methoxy]-5,7-dichloronaphthalene-2-carboxylic acid] |
| 465 nM | O=C(COc1cc(C(=O)O)cc2cc(Cl)cc(Cl)c12)NCc1ccccc1 [Example 18, 4-(Benzylcarbamoylmethoxy)-5,7-dichloro-naphthalene-2-carboxylic acid] |
| 198 nM | CN(C(=O)COc1cc(C(=O)O)cc2cc(Cl)cc(Cl)c12)c1ccccc1C(=O)O [Example 20, 4-{[(2-Carboxyphenyl)-methylcarbamoyl]-methoxy}-5,7-dichloronaphthalene-2-carboxylic acid] |
| 23 nM | NCc1ccc(NC(=O)COc2cc(C(=O)O)cc3cc(Cl)cc(Cl)c23)c(OCC(=O)O)c1 [Example 34, 4-[(4-Aminomethyl-2-carboxymethoxyphenylcarbamoyl)-methoxy]-5,7-dichloronaphthalene-2-carboxylic acid] |
| 50 nM | O=C(O)COc1ccccc1NC(=O)COc1cc(C(=O)O)cc2cc(Cl)cc(Cl)c12 [Example 42, 4-[(2-Carboxymethoxyphenylcarbamoyl)-methoxy]-5,7-dichloronaphthalene-2-carboxylic acid] |
| 542 nM | O=C(O)c1cc(OCC(=O)N2CCCc3ccccc32)c2c(Cl)cc(Cl)cc2c1 [Example 50, 5,7-Dichloro-4-[2-(3,4-dihydro-2H-quinolin-1-yl)-2-oxo-ethoxy]-naphthalene-2-carboxylic acid] |
| 169 nM | O=C(COc1cc(C(=O)O)cc2cc(Cl)cc(Cl)c12)Nc1ccccc1OCC(=O)N1CCOCC1 [Example 54, 5,7-Dichloro-4-{[2-(2-morpholin-4-yl-2-oxo-ethoxy)-phenylcarbamoyl]-methoxy}-naphthalene-2-carboxylic acid] |
| 59 nM | O=C(O)COc1ccccc1CNC(=O)COc1cc(C(=O)O)cc2cc(Cl)cc(Cl)c12 [Example 59, 4-[(2-Carboxymethoxy-benzylcarbamoyl)-methoxy]-5,7-dichloro-naphthalene-2-carboxylic acid] |
| 65 nM | O=C(COc1cc(C(=O)O)cc2cc(Cl)cc(Cl)c12)Nc1ccccc1OCc1nnn[nH]1 [Example 60, 5,7-Dichloro-4-{[2-(1H-tetrazol-5-ylmethoxy)-phenylcarbamoyl]-methoxy}-naphthalene-2-carboxylic acid] |
| 288 nM | COCC(Oc1cc(C(=O)O)cc2cc(Cl)cc(Cl)c12)C(=O)Nc1ccccc1OC (centres unmarked) [Example 74, 5,7-Dichloro-4-[2-methoxy-1-(2-methoxy-phenylcarbamoyl)-ethoxy]-naphthalene-2-carboxylic acid] |
| 253 nM | O=C(O)c1cc(OCC(=O)N2CCOc3c(CO)cccc32)c2c(Cl)cc(Cl)cc2c1 [Example 78, 5,7-Dichloro-4-[2-(8-hydroxymethyl-2,3-dihydro-benzo[1,4]oxazin-4-yl)-2-oxo-ethoxy]-naphthalene-2-carboxylic acid] |
